molecular target: human TPH1 (Homo sapiens (Human), UniProt P17752); assay: Biochemical in vitro assay using fluorescence readout (TPH1 inhibition); conditions: full length human TPH1, 40 μM L-tryptophan, 15° C., 60 minutes, fluorescence at 540 nm; mean if determined several times
Sequence (P17752 whole entry): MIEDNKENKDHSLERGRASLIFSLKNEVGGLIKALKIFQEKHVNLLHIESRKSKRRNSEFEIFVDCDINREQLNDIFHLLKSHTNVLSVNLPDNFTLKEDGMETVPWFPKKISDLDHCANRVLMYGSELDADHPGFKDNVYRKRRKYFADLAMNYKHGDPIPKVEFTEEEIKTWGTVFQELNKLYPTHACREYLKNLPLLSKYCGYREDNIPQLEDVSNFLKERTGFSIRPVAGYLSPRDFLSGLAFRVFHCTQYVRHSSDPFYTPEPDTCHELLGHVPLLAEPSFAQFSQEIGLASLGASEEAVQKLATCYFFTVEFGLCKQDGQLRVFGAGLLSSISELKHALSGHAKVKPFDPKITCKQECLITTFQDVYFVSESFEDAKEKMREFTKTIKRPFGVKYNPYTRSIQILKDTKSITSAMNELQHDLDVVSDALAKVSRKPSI

Compound	IC50 [µM]
Cc1nn2c3c(nc2s1)CCN(C(=O)COc1ccc(N2CC(F)(F)C2)cc1Cl)C3c1ccc(Cl)cc1F (stereo not shown) [Example 1.4.29, 1-(5-(4-Chloro-2-fluorophenyl)-2-methyl-7,8-dihydro-[1,3,4]thiadiazolo[2′,3′:2,3]imidazo[4,5-c]pyridin-6(5H)-yl)-2-(2-chloro-4-(3,3-difluoroazetidin-1-yl)phe-noxy)ethanone]	0.006
Cc1nn2c3c(nc2s1)CCN(C(=O)COc1ccc(C(=O)N(C)C)nc1Cl)C3c1cc(C(=O)N(C)C)cs1 (stereo not shown) [Example 1.9.5, 6-Chloro-5-(2-(5-(4-(dimethylcarbamoyl)thiophen-2-yl)-2-methyl-7,8-dihydro-[1,3,4]-thiadiazolo[2′,3′:2,3]imidazo[4,5-c]pyridin-6(5H)-yl)-2-oxoethoxy)-N,N-dimethyl-picolinamide]	0.022
Cc1nn2c3c(nc2s1)CCN(C(=O)COc1ccc(N2CC(F)(F)C2)nc1Cl)C3c1cnc(N(C)C)s1 (stereo not shown) [Example 1.22.8, 2-((2-Chloro-6-(3,3-difluoroazetidin-1-yl)pyridin-3-yl)oxy)-1-(5-(2-(dimethylamino)-thiazol-5-yl)-2-methyl-7,8-dihydro-[1,3,4]thiadiazolo[2′,3′:2,3]imidazo[4,5-c]pyridin-6(5H)-yl)ethanone]	0.019

same assay, conditions: human TPH1, fluorescence readout

Compound	IC50 [µM]
Cc1cc(Cl)ccc1OCC(=O)N1CCc2nc3sccn3c2C1c1cc2cccnc2s1 (stereo not shown) [Example 6.14.2, 2-(4-chloro-2-methylphenoxy)-1-(5-(thieno[2,3-b]-pyridin-2-yl)-7,8-dihydrothiazolo[2′,3′:2,3]imidazo[4,5-c]pyridin-6(5H)-yl)ethanone]	0.039
Cc1nn2c3c(nc2s1)CCN(C(=O)COc1cccnc1Cl)C3c1sc(C(=O)N(C)C)cc1F (stereo not shown) [Example 1.24.5, 5-(6-(2-((2-chloropyridin-3-yl)oxy)acetyl)-2-methyl-5,6,7,8-tetrahydro-[1,3,4]thiadiazolo[2′,3′:2,3]imidazo[4,5-c]pyridin-5-yl)-4-fluoro-N,N-dimethylthiophene-2-carboxamide]	0.064
Cc1nn2c3c(nc2s1)CCN(C(=O)COc1ccc(-c2ncco2)nc1Cl)C3c1ccc(Cl)cc1F (stereo not shown) [Example 1.4.47, 1-(5-(4-chloro-2-fluorophenyl)-2-methyl-7,8-dihydro-[1,3,4]thiadiazolo[2′,3′:2,3]imidazo[4,5-c]pyridin-6(5H)-yl)-2-((2-chloro-6-(oxazol-2-yl)pyridin-3-yl)oxy)etha-none]	0.01
CCc1nc(NS(C)(=O)=O)ncc1OCC(=O)N1CCc2nc3sc(C)nn3c2[C@@H]1c1ncc(C)cc1F [Example 1.31.19, (R)-N-(4-ethyl-5-(2-(5-(3-fluoro-5-methylpyridin-2-yl)-2-methyl-7,8-dihydro-[1,3,4]thiadiazolo[2′,3′:2,3]imidazo[4,5-c]pyridin-6(5H)-yl)-2-oxoethoxy)pyrimidin-2-yl)methanesulfonamide]	0.051
COC(=O)c1cnc(C2c3c(nc4sc(C)nn34)CCN2C(=O)COc2ccc(NS(=O)(=O)C3CC3)nc2Cl)s1 (stereo not shown) [Example 1.28.3, Methyl 2-(6-(2-((2-chloro-6-(cyclopropanesulfonamido)pyridin-3-yl)oxy)acetyl)-2-methyl-5,6,7,8-tetrahydro-[1,3,4]thiadiazolo[2′,3′:2,3]imidazo[4,5-c]pyridin-5-yl)thiazole-5-carboxylate]	0.045
Cc1nn2c3c(nc2s1)CCN(C(=O)COc1ccc(NS(=O)(=O)C2CC2)nc1Cl)C3c1sccc1F (stereo not shown) [Example 1.23.9, N-(6-chloro-5-(2-(5-(3-fluorothiophen-2-yl)-2-methyl-7,8-dihydro-[1,3,4]thiadiazolo[2′,3′:2,3]imidazo[4,5-c]pyridin-6(5H)-yl)-2-oxoethoxy)pyridin-2-yl)cyclopropanesulfonamide]	0.014
Cc1nn2c3c(nc2s1)CCN(C(=O)COc1ccc(NS(C)(=O)=O)nc1Cl)C3c1sc(C(=O)N(C)C)cc1F (stereo not shown) [Example 1.24.9, 5-(6-(2-((2-chloro-6-(methylsulfonamido)pyridin-3-yl)oxy)acetyl)-2-methyl-5,6,7,8-tetrahydro-[1,3,4]thiadiazolo [2′,3′:2,3]imidazo[4,5-c]pyridin-5-yl)-4-fluoro-N,N-dimethylthiophene-2-carboxamide]	0.006
CCc1nc(C)ccc1OCC(=O)N1CCc2nc3sc(C)nn3c2C1c1ncc(C2CC2)cc1F (stereo not shown) [Example 1.14.2, 1-(5-(5-cyclopropyl-3-fluoropyridin-2-yl)-2-methyl-7,8-dihydro-[1,3,4]thiadiazolo[2′,3′:2,3]imidazo[4,5-c]pyridin-6(5H)-yl)-2-((2-ethyl-6-methylpyridin-3-yl)oxy)ethanone]	0.006
Cc1nn2c3c(nc2s1)CCN(C(=O)COc1ccc(NS(C)(=O)=O)nc1Cl)C3c1ccc(Cl)cc1F (stereo not shown) [Example 1.4.39, N-(6-chloro-5-(2-(5-(4-chloro-2-fluorophenyl)-2-methyl-7,8-dihydro-[1,3,4]thiadiazolo[2′,3′:2,3]imidazo[4,5-c]pyridin-6(5H)-yl)-2-oxoethoxy)pyridin-2-yl)methanesulfonamide]	0.005
Cc1ccccc1OCC(=O)N1CCc2nc3sccn3c2C1c1nc2ccccc2s1 (stereo not shown) [Example 6.12.2, 1-(5-(benzo[d]thiazol-2-yl)-7,8-dihydrothiazolo-[2′,3′:2,3]imidazo[4,5-c]pyridin-6(5H)-yl)-2-(o-tolyloxy)-ethanone]	0.115
2-((2-chloro-6-morpholinopyridin-3-yl)oxy)-1-(5-(4-(2-hydroxypropan-2-yl)thiophen-2-yl)-2-methyl-7,8-dihydro-[1,3,4]thiadiazolo[2′,3′:2,3]imidazo[4,5-c]pyridin-6(5H)-yl)ethanone [Example 1.19.1]	0.006
Cc1ccc(C2c3c(nc4sc(CF)nn34)CCN2C(=O)COc2ccc(NS(C)(=O)=O)nc2Cl)c(F)c1 (stereo not shown) [Example 7.3.1, N-(6-chloro-5-(2-(5-(2-fluoro-4-methylphenyl)-2-(fluoromethyl)-7,8-dihydro-[1,3,4]thiadiazolo[2′,3′:2,3]imidazo[4,5-c]pyridin-6(5H)-yl)-2-oxoethoxy)pyridin-2-yl)methanesulfonamide]	0.008
Cc1nc(C2c3c(nc4sc(C)nn34)CCN2C(=O)COc2ccc(N3CCOCC3)nc2Cl)c(C)o1 (stereo not shown) [Example 1.67.1, 2-((2-chloro-6-morpholinopyridin-3-yl)oxy)-1-(5-(2,5-dimethyloxazol-4-yl)-2-methyl-7,8-dihydro-[1,3,4]thiadiazolo [2′,3′:2,3]imidazo[4,5-c]pyridin-6(5H)-yl)ethanone]	0.025
Cc1nn2c3c(nc2s1)CCN(C(=O)COc1ccc(S(N)(=O)=O)cc1C)C3c1ccc(Cl)nc1F (stereo not shown) [Example 1.16.2, 4-(2-(5-(6-chloro-2-fluoropyridin-3-yl)-2-methyl-7,8-dihydro-[1,3,4]thiadiazolo[2′,3′:2,3]imidazo[4,5-c]pyridin-6(5H)-yl)-2-oxoethoxy)-3-methylbenzenesulfonamide]	0.074
O=C(COc1ccc(-c2ncco2)nc1Cl)N1CCc2nc3sc(C4CC4)nn3c2C1c1ccc(Cl)cc1F (stereo not shown) [Example 4.1.3, 1-(5-(4-chloro-2-fluorophenyl)-2-cyclopropyl-7,8-dihydro-[1,3,4]thiadiazolo[2′,3′:2,3]imidazo[4,5-c]pyridin-6(5H)-yl)-2-((2-chloro-6-(oxazol-2-yl)pyridin-3-yl)oxy)ethanone]	0.013
Cc1nn2c3c(nc2s1)CCN(C(=O)COc1ccc(C(F)(F)F)nc1Cl)C3c1ccc(C2CC2)cc1F (stereo not shown) [Example 1.6.24, 2-((2-chloro-6-(trifluoromethyl)pyridin-3-yl)oxy)-1-(5-(4-cyclopropyl-2-fluorophenyl)-2-methyl-7,8-dihydro-[1,3,4]thiadiazolo[2′,3′:2,3]imidazo[4,5-c]pyridin-6(5H)-yl)ethanone]	0.007
CNC(=O)c1ccc(OCC(=O)N2CCc3nc4sc(C)nn4c3C2c2ncccc2F)c(Cl)n1 (stereo not shown) [Example 1.35.3, 6-chloro-5-(2-(5-(3-fluoropyridin-2-yl)-2-methyl-7,8-dihydro-[1,3,4]thiadiazolo[2′,3′:2,3]imidazo[4,5-c]pyridin-6(5H)-yl)-2-oxoethoxy)-N-methylpicolinamide]	0.029
CCN(CC)C(=O)c1ccc(OCC(=O)N2CCc3nc4sc(C)nn4c3[C@@H]2c2sccc2F)c(Cl)n1 [Example 1.23.14, (R)-6-chloro-N,N-diethyl-5-(2-(5-(3-fluorothiophen-2-yl)-2-methyl-7,8-dihydro-[1,3,4]thiadiazolo[2′,3′:2,3]imidazo[4,5-c]pyridin-6(5H)-yl)-2-oxoethoxy)picolinamide]	0.019
CCc1nc(N2CCCS2(=O)=O)ccc1OCC(=O)N1CCc2nc3sc(C(F)F)nn3c2C1c1ccc(Cl)cc1F (stereo not shown) [Example 8.1.3, 1-(5-(4-chloro-2-fluorophenyl)-2-(difluoromethyl)-7,8-dihydro-[1,3,4]thiadiazolo[2′,3′:2,3]imidazo[4,5-c]pyridin-6(5H)-yl)-2-((6-(1,1-dioxidoisothiazolidin-2-yl)-2-ethylpyridin-3-yl)oxy)ethanone]	0.007
Cc1nn2c3c(nc2s1)CCN(C(=O)COc1ccc(C#N)nc1Cl)C3c1ncc(C2CC2)cc1F (stereo not shown) [Example 1.14.4, 6-chloro-5-(2-(5-(5-cyclopropyl-3-fluoropyridin-2-yl)-2-methyl-7,8-dihydro-[1,3,4]thiadiazolo[2′,3′:2,3]imidazo[4,5-c]pyridin-6(5H)-yl)-2-oxoethoxy)picolinonitrile]	0.017
O=C(COc1ccc(CN2CCOCC2)nc1Cl)N1CCc2nc3sccn3c2C1c1cccnc1F (stereo not shown) [Example 6.2.7, ((2-chloro-6-(morpholinomethyl)pyridin-3-yl)oxy)-1-(5-(2-fluoropyridin-3-yl)-7,8-dihydrothiazolo[2′,3′:2,3]-imidazo[4,5-c]pyridin-6(5H)-yl)ethanone]	0.235
Cc1nn2c3c(nc2s1)CCN(C(=O)COc1ccc(C(N)=O)nc1Cl)C3c1ccc(Cl)cc1F (stereo not shown) [Example 1.4.19, 6-chloro-5-(2-(5-(4-chloro-2-fluorophenyl)-2-methyl-7,8-dihydro-[1,3,4]thiadiazolo[2′,3′:2,3]imidazo[4,5-c]pyridin-6(5H)-yl)-2-oxoethoxy)picolinamide]	0.005
